# Measured values reported in ChEMBL document CHEMBL1146178, “Synthesis and antiviral activity against tobacco mosaic virus and 3D-QSAR of alpha-substituted-1,2,3-thiadiazoleacetamides” (Bioorg Med Chem Lett, 2006).
# What was measured:
# Tobacco mosaic virus = assay: Antiviral activity against TMV at 500 mg/L; assay type: functional
# Hepatitis B virus [1] = assay: Antiviral activity against HBV in HepG2 2.2.15 cells assessed as inhibition of HBsAg at 0.4 umol/mL; assay type: functional
# Hepatitis B virus [2] = assay: Antiviral activity against HBV in HepG2 2.2.15 cells assessed as inhibition of HBsAg at 0.6 umol/mL; assay type: functional
# Hepatitis B virus [3] = assay: Antiviral activity against HBV in HepG2 2.2.15 cells assessed as inhibition of viral DNA synthesis; assay type: functional, organism-based
# Hepatitis B virus [4] = assay: Antiviral activity against HBV in HepG2 2.2.15 cells assessed as inhibition of HBeAg at 0.6 umol/mL; assay type: functional
# Hepatitis B virus [5] = assay: Antiviral activity against HBV in HepG2 2.2.15 cells assessed as inhibition of HBeAg at 0.4 umol/mL; assay type: functional
SMILES,inhibition at 500 µg/mL (Tobacco mosaic virus),also measured
CNC(=O)C(c1csnn1)n1cncn1 (stereo not given),42%,
CNC(=O)C(c1csnn1)[S+]([O-])c1ccccc1F (stereo not given),19%,
CNC(=O)C(c1csnn1)[S+]([O-])c1ccc(F)cc1 (stereo not given),11%,
CNC(=O)C(Oc1ccc(Br)cc1)c1csnn1 (stereo not given),64%,
CNC(=O)C(Sc1ccccc1F)c1csnn1 (stereo not given),37%,
CNC(=O)C(SCc1ccc(Cl)cc1)c1csnn1 (stereo not given),35%,
CNC(=O)C(Sc1nnc(-c2c(C)nn(C)c2SC)s1)c1csnn1 (stereo not given),35%,
CNC(=O)C(Oc1ccccc1Cl)c1csnn1 (stereo not given),53%,
CNC(=O)C(Oc1ccccc1Br)c1csnn1 (stereo not given),44%,
CNC(=O)C(c1csnn1)S(=O)(=O)c1cc(C)ccc1C (stereo not given),12%,
CNC(=O)C(Oc1cc(C)ccc1Cl)c1csnn1 (stereo not given),56%,Inhibition (Hepatitis B virus [1]): 52.9%; Inhibition (Hepatitis B virus [2]): 88.6%; IC50 (Hepatitis B virus [3]): 400 µM; Inhibition (Hepatitis B virus [4]): 15.5%; Inhibition (Hepatitis B virus [5]): 44.2%
CNC(=O)C(c1csnn1)[S+]([O-])Cc1ccc(Cl)cc1 (stereo not given),20%,
CNC(=O)C(c1csnn1)S(=O)(=O)Cc1ccc(Cl)cc1 (stereo not given),51%,
CNC(=O)C(c1csnn1)[S+]([O-])c1ccc(Cl)cc1 (stereo not given),31%,
CNC(=O)C(Sc1nc2nc(C)cc(C)n2n1)c1csnn1 (stereo not given),5%,
CNC(=O)C(c1csnn1)S(=O)(=O)c1ccc(F)cc1 (stereo not given),19%,
CNC(=O)C(Sc1cc(C)ccc1C)c1csnn1 (stereo not given),0%,
CNC(=O)C(Sc1ccc(Cl)cc1)c1csnn1 (stereo not given),42%,
CNC(=O)C(c1csnn1)S(=O)(=O)c1ccc(OC)cc1 (stereo not given),0%,
CNC(=O)C(c1csnn1)[S+]([O-])c1cc(C)ccc1C (stereo not given),0%,
CNC(=O)C(Oc1cccc(C)c1)c1csnn1 (stereo not given),5.5%,
CNC(=O)C(c1csnn1)S(=O)(=O)c1ccccc1F (stereo not given),82%,
CNC(=O)C(Oc1ccc2ccccc2c1)c1csnn1 (stereo not given),44%,
CNC(=O)C(Sc1ccc(F)cc1)c1csnn1 (stereo not given),33%,
CNC(=O)C(Sc1cc(Cl)ccc1Cl)c1csnn1 (stereo not given),0%,
